Test [1] concerns the target T1, TAS2R30 (Homo sapiens, UniProt P59541).
T1 sequence (P59541 1-319): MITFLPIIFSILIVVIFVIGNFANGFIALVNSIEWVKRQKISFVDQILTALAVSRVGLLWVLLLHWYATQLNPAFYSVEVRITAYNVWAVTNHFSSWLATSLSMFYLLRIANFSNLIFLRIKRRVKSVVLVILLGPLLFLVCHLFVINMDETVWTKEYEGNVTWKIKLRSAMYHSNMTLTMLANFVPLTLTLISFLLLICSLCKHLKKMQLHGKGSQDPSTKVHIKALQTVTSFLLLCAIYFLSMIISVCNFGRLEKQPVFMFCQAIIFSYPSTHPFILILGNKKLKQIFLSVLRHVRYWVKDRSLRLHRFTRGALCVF
Nature of the test: Calcium mobilization assay, HEK293T-Gα16gust44 cells expressing TAS2R30. The conditions noted are these: for Response of TAS2R30: maximal concentration tested: sucralose 100 mM, neotame 30 µM, Ace-K 300 mM, RebA 4 mM, RebM 4 mM, mogroside V 5 mM, erythritol 200 mM, D-allulose 500 mM, thaumatin 100 mM. (Calcium flux is commonly read through the fluorescence of an indicator in the cells.)
Method: (§1) Different concentration ranges were tested depending on the injected sweet compound. […] All of the concentration-receptor combinations were measured in triplicate, and each experiment was repeated at least 3 times. The Ca^2+ change was expressed as a fractional change in fluorescent light intensity: ΔF/F = (F − F0)/F0, where F was the fluorescent light intensity at each point, and F0 was the value of fluorescent light emitted prior to stimulus application. To calculate dose–response relationships, the changes in fluorescence upon stimulus application were averaged, mock-subtracted and baseline-corrected. The resulting obtained dose–response data were adjusted by using a 4-parameter logistic equation.

The target of test [2] is T2, TAS2R43 (Homo sapiens, UniProt P59537).
T2 sequence (P59537 1-309): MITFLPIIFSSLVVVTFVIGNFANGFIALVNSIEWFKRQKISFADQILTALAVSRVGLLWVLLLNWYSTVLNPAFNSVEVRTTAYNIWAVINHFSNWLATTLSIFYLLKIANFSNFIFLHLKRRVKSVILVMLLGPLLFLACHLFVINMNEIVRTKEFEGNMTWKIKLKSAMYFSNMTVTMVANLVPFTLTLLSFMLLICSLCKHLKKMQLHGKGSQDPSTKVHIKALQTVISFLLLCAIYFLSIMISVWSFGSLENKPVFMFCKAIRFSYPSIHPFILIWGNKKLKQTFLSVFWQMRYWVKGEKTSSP
Nature of the test: Calcium mobilization assay, HEK293T-Gα16gust44 cells expressing TAS2R43. Conditions: for Response of TAS2R43: maximal concentration tested: sucralose 100 mM, neotame 30 µM, Ace-K 300 mM, RebA 4 mM, RebM 4 mM, mogroside V 5 mM, erythritol 200 mM, D-allulose 500 mM, thaumatin 100 mM.
Method: as §1

Test [3] has as its target T3, TAS2R31 (Homo sapiens, UniProt P59538).
T3 sequence (P59538 1-309): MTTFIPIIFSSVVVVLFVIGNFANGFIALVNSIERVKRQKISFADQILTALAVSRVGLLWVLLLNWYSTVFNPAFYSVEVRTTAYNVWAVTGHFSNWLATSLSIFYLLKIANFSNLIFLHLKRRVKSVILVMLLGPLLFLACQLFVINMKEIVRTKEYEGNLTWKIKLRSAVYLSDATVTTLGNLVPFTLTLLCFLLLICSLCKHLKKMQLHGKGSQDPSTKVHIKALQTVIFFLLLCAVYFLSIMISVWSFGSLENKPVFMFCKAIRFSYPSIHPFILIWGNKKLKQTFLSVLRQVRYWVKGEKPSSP
Put plainly: Calcium mobilization assay, HEK293T-Gα16gust44 cells expressing TAS2R31. Conditions: maximal concentration tested: sucralose 100 mM, neotame 30 µM, Ace-K 300 mM, RebA 4 mM, RebM 4 mM, mogroside V 5 mM, erythritol 200 mM, D-allulose 500 mM, thaumatin 100 mM.
Method: as §1

In test [4] the target is T4, TAS2R14 (Homo sapiens, UniProt Q9NYV8).
T4 sequence (Q9NYV8 1-317): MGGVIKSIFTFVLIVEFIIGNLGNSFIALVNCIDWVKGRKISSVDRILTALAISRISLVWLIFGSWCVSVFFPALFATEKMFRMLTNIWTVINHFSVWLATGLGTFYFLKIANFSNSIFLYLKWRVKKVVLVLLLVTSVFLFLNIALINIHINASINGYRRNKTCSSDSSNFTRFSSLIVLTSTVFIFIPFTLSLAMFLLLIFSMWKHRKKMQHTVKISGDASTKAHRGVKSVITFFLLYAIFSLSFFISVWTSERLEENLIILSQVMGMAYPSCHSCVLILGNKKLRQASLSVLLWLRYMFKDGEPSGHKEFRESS
Put plainly: Calcium mobilization assay, HEK293T-Gα16gust44 cells expressing TAS2R14. Conditions: maximal concentration tested: sucralose 100 mM, neotame 30 µM, Ace-K 300 mM, RebA 4 mM, RebM 4 mM, mogroside V 5 mM, erythritol 200 mM, D-allulose 500 mM, thaumatin 100 mM.
Method: as §1

Test [5] has as its target T5, TAS2R13 (Homo sapiens, UniProt Q9NYV9).
T5 sequence (Q9NYV9 1-303): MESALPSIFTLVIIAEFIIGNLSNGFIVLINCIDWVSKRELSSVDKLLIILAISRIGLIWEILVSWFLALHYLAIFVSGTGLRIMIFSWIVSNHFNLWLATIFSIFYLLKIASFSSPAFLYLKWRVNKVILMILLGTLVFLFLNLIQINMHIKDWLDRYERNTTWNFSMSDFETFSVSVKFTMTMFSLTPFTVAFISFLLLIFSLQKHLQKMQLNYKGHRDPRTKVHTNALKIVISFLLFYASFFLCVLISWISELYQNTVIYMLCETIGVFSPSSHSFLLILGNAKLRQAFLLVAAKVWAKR
Nature of the test: Calcium mobilization assay, HEK293T-Gα16gust44 cells expressing TAS2R13. Conditions: maximal concentration tested: sucralose 100 mM, neotame 30 µM, Ace-K 300 mM, RebA 4 mM, RebM 4 mM, mogroside V 5 mM, erythritol 200 mM, D-allulose 500 mM, thaumatin 100 mM.
Method: as §1

The target in test [6] is T6, TAS2R45 (Homo sapiens, UniProt P59539).
T6 sequence (P59539 1-299): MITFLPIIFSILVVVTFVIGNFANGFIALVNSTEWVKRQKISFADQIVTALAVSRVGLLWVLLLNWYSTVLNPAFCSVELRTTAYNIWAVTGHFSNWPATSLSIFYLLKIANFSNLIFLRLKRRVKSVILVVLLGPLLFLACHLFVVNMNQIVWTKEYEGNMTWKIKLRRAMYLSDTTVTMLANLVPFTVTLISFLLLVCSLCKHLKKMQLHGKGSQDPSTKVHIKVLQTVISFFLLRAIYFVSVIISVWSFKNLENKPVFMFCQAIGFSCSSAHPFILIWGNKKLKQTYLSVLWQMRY
Nature of the test: Calcium mobilization assay, HEK293T-Gα16gust44 cells expressing TAS2R45. The conditions noted are these: maximal concentration tested: sucralose 100 mM, neotame 30 µM, Ace-K 300 mM, RebA 4 mM, RebM 4 mM, mogroside V 5 mM, erythritol 200 mM, D-allulose 500 mM, thaumatin 100 mM.
Method: Different concentration ranges were tested depending on the injected sweet compound. […] All of the concentration-receptor combinations were measured in triplicate, and each experiment was repeated at least 3 times. The Ca^2+ change was expressed as a fractional change in fluorescent light intensity: ΔF/F = (F − F0)/F0, where F was the fluorescent light intensity at each point, and F0 was the value of fluorescent light emitted prior to stimulus application. To calculate dose–response relationships, the changes in fluorescence upon stimulus application were averaged, mock-subtracted and baseline-corrected. The resulting obtained dose–response data were adjusted by using a 4-parameter logistic equation. The half-maximal effective concentration (EC50) was calculated by using SigmaPlot software (Systat Software, San Jose, CA, USA) as described in supplemental Supplementary Figs. S1, S2, and S3.

The target in test [7] is T7, TAS2R16 (Homo sapiens, UniProt Q9NYV7).
T7 sequence (Q9NYV7 1-291): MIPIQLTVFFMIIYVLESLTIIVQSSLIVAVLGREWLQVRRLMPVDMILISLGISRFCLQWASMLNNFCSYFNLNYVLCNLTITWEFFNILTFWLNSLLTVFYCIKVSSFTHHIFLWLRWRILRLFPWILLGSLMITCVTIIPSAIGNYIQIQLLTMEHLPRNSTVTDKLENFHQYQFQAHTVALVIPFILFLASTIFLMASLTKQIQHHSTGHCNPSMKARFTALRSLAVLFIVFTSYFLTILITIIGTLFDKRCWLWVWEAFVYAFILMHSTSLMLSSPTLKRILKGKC
Nature of the test: Calcium mobilization assay, HEK293T-Gα16gust44 cells expressing TAS2R16. The conditions noted are these: for Response of TAS2R16: maximal concentration tested: sucralose 100 mM, neotame 30 µM, Ace-K 300 mM, RebA 4 mM, RebM 4 mM, mogroside V 5 mM, erythritol 200 mM, D-allulose 500 mM, thaumatin 100 mM.
Method: as §1

`O=C(CO)[C@H](O)[C@H](O)[C@H](O)CO` [D-allulose]: in test [1], the “concentrations at which TAS2R30 was activated” value is on record as more than 300 mM and the “Response of TAS2R30” value is on record as “+”. In test [2], the “concentrations at which TAS2R43 was activated” value is on record as more than 300 mM and the “Response of TAS2R43” value is on record as “+”. Also, in test [3], the “Response of TAS2R31” value is on record as “−”. The “Response of TAS2R14” value in test [4] is “+”. The “Response of TAS2R13” value in test [5] is listed as “−”. For the same molecule, the “Response of TAS2R45” value in test [6] was “−”. For the same molecule, in test [7], the “concentrations at which TAS2R16 was activated” value is given as more than 300 mM and the “Response of TAS2R16” value is given as “+”.

For the molecule `C=C1C[C@@]23CC[C@H]4[C@@](C)(CCC[C@@]4(C)C(=O)O[C@@H]4O[C@H](CO)[C@@H](O)[C@H](O[C@@H]5O[C@H](CO)[C@@H](O)[C@H](O)[C@H]5O)[C@H]4O[C@@H]4O[C@H](CO)[C@@H](O)[C@H](O)[C@H]4O)[C@@H]2CC[C@]1(O[C@@H]1O[C@H](CO)[C@@H](O)[C@H](O[C@@H]2O[C@H](CO)[C@@H](O)[C@H](O)[C@H]2O)[C@H]1O[C@@H]1O[C@H](CO)[C@@H](O)[C@H](O)[C@H]1O)C3` [RebM, Rebaudioside M], the “Response of TAS2R30” value in test [1] is “−”. Besides, the “Response of TAS2R43” value in test [2] was “−”. Also, the “Response of TAS2R31” value in test [3] is given as “−”. In addition, the “Response of TAS2R14” value in test [4] is on record as “−”. Besides, the “Response of TAS2R13” value in test [5] is reported as “−”. In test [6], the “Response of TAS2R45” value is given as “−”. Also, in test [7], the “Response of TAS2R16” value was “−”.

Consider `OC[C@@H](O)[C@@H](O)CO` [Erythritol, erythritol], for which the “Response of TAS2R30” value in test [1] is “−”. The “Response of TAS2R43” value in test [2] was “−”. Besides, in test [3], the “Response of TAS2R31” value is on record as “−”. Further, the “Response of TAS2R14” value in test [4] is listed as “−”. For the same molecule, the “Response of TAS2R13” value in test [5] was “−”. The “Response of TAS2R45” value in test [6] is given as “−”. The “Response of TAS2R16” value in test [7] is listed as “−”.

Consider `CC1=CC(=O)NS(=O)(=O)O1` [Ace-K, acesulfame-K], for which the “Response of TAS2R30” value in test [1] was “−”. For the same molecule, the “Response of TAS2R43” value in test [2] is on record as “§^b”. Besides, the “Response of TAS2R31” value in test [3] is recorded as “#^b”. Besides, the “Response of TAS2R14” value in test [4] is recorded as “−”. The “Response of TAS2R13” value in test [5] was “−”. Also, the “Response of TAS2R45” value in test [6] is “−”. Further, the “Response of TAS2R16” value in test [7] is “−”.

In the case of thaumatin, the “Response of TAS2R30” value in test [1] is recorded as “−”. Further, the “Response of TAS2R43” value in test [2] is listed as “−”. The “Response of TAS2R31” value in test [3] is given as “−”. In addition, in test [4], the “Response of TAS2R14” value is on record as “−”. The “Response of TAS2R13” value in test [5] is on record as “−”. For the same molecule, in test [6], the “Response of TAS2R45” value is listed as “−”. In addition, the “Response of TAS2R16” value in test [7] was “−”.

Regarding `COC(=O)[C@H](Cc1ccccc1)NC(=O)[C@H](CC(=O)O)NCCC(C)(C)C` [Neotame], in test [1], the “Response of TAS2R30” value is recorded as “−”. Besides, the “Response of TAS2R43” value in test [2] is recorded as “−”. Besides, the “Response of TAS2R31” value in test [3] is “−”. The “Response of TAS2R14” value in test [4] is given as “−”. Besides, the “Response of TAS2R13” value in test [5] is recorded as “−”. Moreover, the “Response of TAS2R45” value in test [6] is on record as “−”. The “Response of TAS2R16” value in test [7] is “−”.

For the molecule `C[C@H](CC[C@@H](O[C@@H]1O[C@H](CO[C@@H]2O[C@H](CO)[C@@H](O)[C@H](O)[C@H]2O)[C@@H](O)[C@H](O)[C@H]1O[C@@H]1O[C@H](CO)[C@@H](O)[C@H](O)[C@H]1O)C(C)(C)O)[C@H]1CC[C@@]2(C)[C@@H]3CC=C4[C@@H](CC[C@H](O[C@@H]5O[C@H](CO[C@@H]6O[C@H](CO)[C@@H](O)[C@H](O)[C@H]6O)[C@@H](O)[C@H](O)[C@H]5O)C4(C)C)[C@]3(C)[C@H](O)C[C@]12C` [Mogroside V, mogroside V], the “Response of TAS2R30” value in test [1] is listed as “−”. Also, the “Response of TAS2R43” value in test [2] is “−”. Further, the “Response of TAS2R31” value in test [3] is given as “−”. For the same molecule, the “Response of TAS2R14” value in test [4] is on record as “−”. For the same molecule, the “Response of TAS2R13” value in test [5] is listed as “−”. Further, the “Response of TAS2R45” value in test [6] is recorded as “−”. Further, the “Response of TAS2R16” value in test [7] is “+”. Also, the EC50 in test [7] (read-out: TAS2R16 EC50) was 1.18 ± 0.44 mM.

Consider `OC[C@H]1O[C@H](O[C@]2(CCl)O[C@H](CCl)[C@@H](O)[C@@H]2O)[C@H](O)[C@@H](O)[C@H]1Cl` [Sucralose, sucralose], for which the “Response of TAS2R30” value in test [1] is recorded as “−”. The “Response of TAS2R43” value in test [2] is listed as “−”. The “Response of TAS2R31” value in test [3] is listed as “§^a”. Also, the “Response of TAS2R14” value in test [4] was “−”. In test [5], the “Response of TAS2R13” value is “−”. In addition, the “Response of TAS2R45” value in test [6] is reported as “−”. For the same molecule, in test [7], the “Response of TAS2R16” value is recorded as “−”.

What is called EC50 is the concentration at which the effect is half-maximal.

The values are drawn from paper PMC11631053, “A receptor-based assay to study the sweet and bitter tastes of sweeteners and binary sweet blends: the SWEET project” (Chemical Senses, 2024).
